For one series, the system named is PAM activity. In words: Circulating PAM activity in rats after intravenous injection of PAM, ascorbate or both, measured without exogenous ascorbate. Format: in vivo, Wistar rats.
For series [1], the target named is T1, circulating human PAM activity (Homo sapiens, UniProt P19021).
T1 construct: Human serum or Li-Heparin plasma from self-reported healthy volunteers was used as source of human native PAM; from tissue; host or cells: Li-heparin plasma and serum of healthy human volunteers
T1 sequence (P19021 31-973): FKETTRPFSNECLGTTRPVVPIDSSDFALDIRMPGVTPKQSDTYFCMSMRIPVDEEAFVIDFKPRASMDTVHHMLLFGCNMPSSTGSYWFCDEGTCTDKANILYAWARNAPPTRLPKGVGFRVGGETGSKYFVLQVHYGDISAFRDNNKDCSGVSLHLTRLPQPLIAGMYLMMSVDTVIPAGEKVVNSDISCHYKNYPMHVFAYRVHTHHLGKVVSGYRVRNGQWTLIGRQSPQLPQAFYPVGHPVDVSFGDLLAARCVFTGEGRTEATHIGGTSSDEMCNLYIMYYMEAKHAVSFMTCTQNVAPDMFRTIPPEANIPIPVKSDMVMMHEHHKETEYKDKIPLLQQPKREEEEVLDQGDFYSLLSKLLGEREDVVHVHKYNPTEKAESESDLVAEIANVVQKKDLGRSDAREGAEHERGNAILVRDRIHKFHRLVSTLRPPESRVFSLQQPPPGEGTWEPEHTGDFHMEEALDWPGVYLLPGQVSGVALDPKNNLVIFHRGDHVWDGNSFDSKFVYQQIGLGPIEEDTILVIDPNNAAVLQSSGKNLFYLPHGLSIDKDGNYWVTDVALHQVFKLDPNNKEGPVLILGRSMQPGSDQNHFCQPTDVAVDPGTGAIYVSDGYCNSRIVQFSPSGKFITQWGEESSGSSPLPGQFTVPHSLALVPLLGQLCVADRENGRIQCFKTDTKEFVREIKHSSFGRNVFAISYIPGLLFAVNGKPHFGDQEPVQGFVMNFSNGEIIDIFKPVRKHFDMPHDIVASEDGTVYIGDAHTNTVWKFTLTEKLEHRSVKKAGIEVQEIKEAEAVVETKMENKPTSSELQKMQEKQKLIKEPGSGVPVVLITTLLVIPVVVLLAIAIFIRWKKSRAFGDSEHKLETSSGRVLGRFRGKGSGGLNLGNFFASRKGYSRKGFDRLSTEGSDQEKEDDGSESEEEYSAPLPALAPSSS
In words: Amidating activity in healthy human volunteers after oral ascorbate uptake, measured without exogenous ascorbate. The series is classed as in vivo. As to conditions: 2000 mg oral single dose. As to the method: FIG. 23: Amidating activity in healthy human volunteers before (0 h) and after oral ascorbate uptake measured without addition of exogenous ascorbate. AMA at t=0 h was set as 100%.
Human serum or Li-Heparin plasma from self-reported healthy volunteers was used as source of human native PAM. Each sample (20 μl) was diluted two-fold in 100 mM Tris-HCl in duplicate. The amidation reaction was initiated by addition of 160 μl of PAM-reaction buffer (100 mM Tris-HCl, pH 7.5, 6.25 μM CuSO4, 2.5 mM L-ascorbate, 125 μg/mL catalase, 62.5 μM amastatin, 250 μM leupeptin, 36 ng/mL synthetic ADM-Gly and 375 μg/mL NT-ADM antibody). Afterwards, 100 μl of each individual reaction of duplicated samples were combined and transferred into 20 μl of 200 mM EDTA to terminate the amidation reaction and to generate t=0 minutes reaction time-point followed by incubation at 37° C. for 40 minutes. Afterwards the non-terminated reactions were stopped with 10 μl of 200 mM EDTA. To determine the PAM activity, bio-ADM as reaction product was quantified in each sample using the Sphingotest® bio-ADM immunoassay (Weber et al. 2017). The amidation assay was calibrated using a 6-point calibration curve generated with human recombinant PAM of known activity. Samples and calibrators were treated in the same manner. Relative light units (RLU t40 min-t0 min) determined via Sphingotest® bio-ADM immunoassay for each sample were fitted against the RLU (t40 min-t0 min) of the calibrator to determine the PAM activity in the samples. PAM activity is described as “adrenomedullin maturation activity” (AMA) in μg bio-ADM formed per hour and L of sample.
Healthy volunteers (n=4) received 2000 mg of vitamin C (Dr. Scheffler, Additiva® Vitamin C) as an oral single dose. Blood sampling was performed prior to- and 1, 2 and 3 hours post administration. Basal amidating activity was determined from Li-heparin plasma and serum as described in example 3 in absence of exogenous ascorbate addition and is shown in FIG. 23.

In a further series the test system is bio-ADM. In words: Circulating bio-ADM concentration in rats after intravenous injection of PAM, ascorbate or both. Format: in vivo, Wistar rats.
The target of series [2] is T2, adrenomedullin-Gly (ADM-Gly) (UniProt P35318).
T2 sequence: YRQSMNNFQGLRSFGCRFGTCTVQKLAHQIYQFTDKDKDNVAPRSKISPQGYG

Series [3] deals with T3, adrenomedullin-Gly (ADM-Gly), P35318.
T3 chain: T2 sequence

Experimental findings from patent US20230149516A1, “USE OF PEPTIDYLGLYCINE ALPHA-AMIDATING MONOOXYGENASE (PAM) FOR THERAPEUTIC PURPOSE” (PAM THERAGNOSITICS GMBH, priority 2020, published 2023) are described below.

For `O=C1O[C@H]([C@@H](O)CO)C(O)=C1O` [Ascorbate, vitamin C, reference compound], the “PAM activity compared to placebo group” value in the series with PAM activity (120 min past injection) is recorded as “comparable to PAM activity in the placebo group”. The “time of maximal elevation of PAM activity past injection” value in the series with PAM activity (single i.v. injection) turned out to be 15 min. For the same molecule, the “elevation of circulating PAM activity” value in the series with PAM activity (single i.v. injection of 500 μl (PAM 50 μg/mL, ascorbate 40 mg/mL), vs placebo) is reported as “non-significant elevation”. For the same molecule, the “time PAM activity remained elevated after injection” value in the series with PAM activity (single i.v. injection, significantly elevated for PAM and the combination) amounted to 60 min. The “PAM activity elevated by the factor compared to prior to ascorbate uptake” value is 1.7 in series [1] (1 h after uptake), around 2 in series [1] (2 h post uptake) and around 2 in series [1] (3 h post uptake). Also, the “bio-ADM concentration elevated by the factor (normalized to placebo)” value in the series on bio-ADM (after 15 min) is 1.4; in the series with bio-ADM (after 30 min) it was 1.4; in the series on bio-ADM (after 45 min), 1.2; with bio-ADM (after 60 min), “returned to baseline levels”. In the series on bio-ADM (after 120 minutes), the “bio-ADM concentration compared to the Placebo group” value is listed as “not significantly different”.
Regarding “native human PAM in human plasma or serum”, in series [2], the “formation of bio-ADM (Sphingotest bio-ADM immunoassay) in human Li-Heparin plasma” value was “When ADM-Gly was added to the sample, a linear formation of bio-ADM was detected within 90 minutes” and the “formation of bio-ADM from endogenous ADM-Gly in human Li-Heparin plasma” value is reported as “endogenous human PAM enzyme is capable of the conversion of endogenous human ADM-Gly to bioADM in a time-dependent manner”.

B1: recombinant human PAM (peptidylglycine alpha-amidating monooxygenase, amino acids 21-834, C-terminal hexa-histidine tag linked via a GS linker) (protein)
chain: SPLSVFKRFKETTRPFSNECLGTTRPVVPIDSSDFALDIRMPGVTPKQSDTYFCMSMRIPVDEEAFVIDFKPRASMDTVHHMLLFGCNMPSSTGSYWFCDEGTCTDKANILYAWARNAPPTRLPKGVGFRVGGETGSKYFVLQVHYGDISAFRDNNKDCSGVSLHLTRLPQPLIAGMYLMMSVDTVIPAGEKVVNSDISCHYKNYPMHVFAYRVHTHHLGKVVSGYRVRNGQWTLIGRQSPQLPQAFYPVGHPVDVSFGDLLAARCVFTGEGRTEATHIGGTSSDEMCNLYIMYYMEAKHAVSFMTCTQNVAPDMFRTIPPEANIPIPVKSDMVMMHEHHKETEYKDKIPLLQQPKREEEEVLDQGDFYSLLSKLLGEREDVVHVHKYNPTEKAESESDLVAEIANVVQKKDLGRSDAREGAEHERGNAILVRDRIHKFHRLVSTLRPPESRVFSLQQPPPGEGTWEPEHTGDFHMEEALDWPGVYLLPGQVSGVALDPKNNLVIFHRGDHVWDGNSFDSKFVYQQIGLGPIEEDTILVIDPNNAAVLQSSGKNLFYLPHGLSIDKDGNYWVTDVALHQVFKLDPNNKEGPVLILGRSMQPGSDQNHFCQPTDVAVDPGTGAIYVSDGYCNSRIVQFSPSGKFITQWGEESSGSSPLPGQFTVPHSLALVPLLGQLCVADRENGRIQCFKTDTKEFVREIKHSSFGRNVFAISYIPGLLFAVNGKPHFGDQEPVQGFVMNFSNGEIIDIFKPVRKHFDMPHDIVASEDGTVYIGDAHTNTVWKFTLTEKLEHRSVKKAGIEVQEIKEAEAVVGSHHHHHH
Take B1: the bio-ADM synthesis rate result in series [3] was “by an averaged factor of 1.8 at each time-point”.
